The term pIC50 denotes −log10 of the IC50, conventionally taken in molar units. Read a high pIC50 as a low IC50.

SMILES strings stand for the structures. pIC50: −log10 of the molar value.

One assay addresses T1, TLR7 (Homo sapiens, UniProt Q9NYK1).
T1 construct: expressed in transfected cells; host or cells: HEK cells carrying TLR7 and an NFkB luciferase reporter
T1 sequence (Q9NYK1 27-1049): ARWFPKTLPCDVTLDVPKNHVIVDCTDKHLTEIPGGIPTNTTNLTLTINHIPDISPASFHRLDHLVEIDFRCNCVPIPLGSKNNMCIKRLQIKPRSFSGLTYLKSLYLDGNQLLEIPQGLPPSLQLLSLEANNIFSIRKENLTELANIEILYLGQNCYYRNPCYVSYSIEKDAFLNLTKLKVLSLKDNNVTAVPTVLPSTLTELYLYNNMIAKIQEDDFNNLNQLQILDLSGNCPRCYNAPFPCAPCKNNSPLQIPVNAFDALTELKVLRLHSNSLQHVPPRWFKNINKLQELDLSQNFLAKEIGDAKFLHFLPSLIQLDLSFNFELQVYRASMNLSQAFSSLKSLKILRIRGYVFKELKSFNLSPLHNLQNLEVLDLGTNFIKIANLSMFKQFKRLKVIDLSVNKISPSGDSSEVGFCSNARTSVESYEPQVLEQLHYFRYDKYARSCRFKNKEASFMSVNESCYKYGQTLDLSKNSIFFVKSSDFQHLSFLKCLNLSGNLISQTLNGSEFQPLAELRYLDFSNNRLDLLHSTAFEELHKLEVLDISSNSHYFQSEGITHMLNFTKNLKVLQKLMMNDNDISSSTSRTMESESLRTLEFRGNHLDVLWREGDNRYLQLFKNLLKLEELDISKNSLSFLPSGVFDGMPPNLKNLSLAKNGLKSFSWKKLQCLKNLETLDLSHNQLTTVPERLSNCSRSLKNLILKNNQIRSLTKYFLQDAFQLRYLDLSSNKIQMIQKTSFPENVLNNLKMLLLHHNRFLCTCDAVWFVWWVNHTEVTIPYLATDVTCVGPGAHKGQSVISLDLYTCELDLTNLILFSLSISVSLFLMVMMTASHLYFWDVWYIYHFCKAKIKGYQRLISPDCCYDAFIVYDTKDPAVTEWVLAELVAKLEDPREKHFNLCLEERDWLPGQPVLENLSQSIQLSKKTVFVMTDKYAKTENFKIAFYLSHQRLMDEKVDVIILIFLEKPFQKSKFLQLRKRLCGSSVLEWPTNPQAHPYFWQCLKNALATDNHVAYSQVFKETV
Put plainly: HEK TLR7 Cell Assay. It counts as cell-based. As to conditions: TLR7/NFKb HEK cells, R848 agonist 10 uM final, Steady-Glo readout. The protocol: Example 24: HEK TLR7 Cell Assay
(§1) Into 384 CulturePlates (Corning 3707) was placed 5000 c/w of TLR7/NFKb HEK cells in 30 uL DMEM without Phenol red (gibco #31053) and 10% FCS-HI, 2 mM L-Glutamine, 1% Pen/Strept. The cells are incubated for 24 h at 37 degrees Celsius, and 10% carbon dioxide. Dispense 3 uL of controls, standards, and compounds to wells, incubate for 30 min then add 3 uL of R848 (10 uM final concentration) agonist in 20 mM Hepes. Incubate for 5 hours and then allow to stand at room temperature for 15 min. Add 10 uL of Steady-Glo substrate reagent and shake assay plate for 5 min at 1500 rpm. Let the assay plate sit for 30 min at room temperature and then read plate on EnVision.

The next assay addresses T2, TLR8 (Homo sapiens, UniProt Q9NR97).
T2 construct: expressed in transfected cells; host or cells: HEK cells carrying TLR8 and an NFkB luciferase reporter
T2 sequence (Q9NR97 27-1041): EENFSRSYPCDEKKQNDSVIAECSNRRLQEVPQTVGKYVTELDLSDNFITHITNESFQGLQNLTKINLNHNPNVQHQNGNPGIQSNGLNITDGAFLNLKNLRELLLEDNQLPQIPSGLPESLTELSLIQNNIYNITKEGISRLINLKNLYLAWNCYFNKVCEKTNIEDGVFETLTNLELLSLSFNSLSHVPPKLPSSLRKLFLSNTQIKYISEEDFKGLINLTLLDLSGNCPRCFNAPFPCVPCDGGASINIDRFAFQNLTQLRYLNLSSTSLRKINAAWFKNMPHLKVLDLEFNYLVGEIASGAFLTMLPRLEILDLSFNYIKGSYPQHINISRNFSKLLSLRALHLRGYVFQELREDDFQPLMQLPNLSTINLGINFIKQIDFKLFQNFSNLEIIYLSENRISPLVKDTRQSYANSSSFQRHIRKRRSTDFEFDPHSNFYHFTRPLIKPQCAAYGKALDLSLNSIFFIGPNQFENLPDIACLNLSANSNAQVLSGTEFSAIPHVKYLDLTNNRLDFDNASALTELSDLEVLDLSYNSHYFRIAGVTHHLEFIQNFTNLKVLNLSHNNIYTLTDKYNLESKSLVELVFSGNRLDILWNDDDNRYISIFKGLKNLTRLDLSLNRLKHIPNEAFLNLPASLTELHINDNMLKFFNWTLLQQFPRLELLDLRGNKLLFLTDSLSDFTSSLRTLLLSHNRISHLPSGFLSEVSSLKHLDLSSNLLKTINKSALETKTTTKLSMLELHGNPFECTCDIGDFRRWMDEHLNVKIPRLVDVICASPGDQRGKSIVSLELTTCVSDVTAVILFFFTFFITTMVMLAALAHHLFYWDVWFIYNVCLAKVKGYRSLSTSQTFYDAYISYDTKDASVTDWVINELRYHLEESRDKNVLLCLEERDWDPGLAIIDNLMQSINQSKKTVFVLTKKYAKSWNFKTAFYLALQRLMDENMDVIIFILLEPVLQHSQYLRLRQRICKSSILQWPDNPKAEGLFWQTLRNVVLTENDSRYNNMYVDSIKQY
Put plainly: HEK TLR8 Cell Assay. The following applies: TLR8/NFKb HEK cells, R848 agonist 30 uM final, Steady-Glo readout. It counts as cell-based. The protocol: Example 25: HEK TLR8 Cell Assay
as §1, with “TLR8/NFKb” for “TLR7/NFKb”, “(30” for “(10”

As for `C[C@@H]1CN(c2ccc(C#N)c3nccnc23)C[C@@H]1N` [Compound 1, 8-[(3R,4R)-3-amino-4-methylpyrrolidin-1-yl]quinoxaline-5-carbonitrile], the results for the pIC50 at TLR7 and on TLR8 were more than 6.00 and 5.00 to 6.00, respectively.
In the same order, the values of `C[C@@H]1CN(c2ccc(C#N)c3nccnc23)C[C@@H]1NC(=O)CC1CCN(C)CC1` [Compound 2, N-[(3R,4R)-1-(8-cyanoquinoxalin-5-yl)-4-methylpyrrolidin-3-yl]-2-(1-methylpiperidin-4-yl)acetamide] are more than 6.00 and more than 6.00.
As for `C[C@@H]1CN(c2ccc(C#N)c3nccnc23)C[C@@H]1NC(=O)CN1CCOCC1` [Compound 7, N-[(3R,4R)-1-(8-cyanoquinoxalin-5-yl)-4-methylpyrrolidin-3-yl]-2-(morpholin-4-yl)acetamide], the negative-log IC50 (pIC50) at TLR7 and at TLR8 was 5.00 to 6.00 each time.
Turning to `C[C@@H]1CN(c2ccc(C#N)c3nccnc23)C[C@@H]1NC(=O)CC1(C)CCN(C)CC1` [Compound 8, N-[(3R,4R)-1-(8-cyanoquinoxalin-5-yl)-4-methylpyrrolidin-3-yl]-2-(1,4-dimethylpiperidin-4-yl)acetamide], the pIC50 at TLR7 and on TLR8 was more than 6.00 each time.
Regarding `C[C@@H]1CN(c2ccc(C#N)c3nccnc23)C[C@@H]1NC(=O)CC1(F)CCNCC1` [Compound 9, N-[(3R,4R)-1-(8-cyanoquinoxalin-5-yl)-4-methylpyrrolidin-3-yl]-2-(4-fluoropiperidin-4-yl)acetamide], the pIC50 at TLR7 and at TLR8 was more than 6.00 each time.
Regarding `C[C@@H]1CN(c2ccc(C#N)c3nccnc23)C[C@@H]1NC(=O)CC1(F)CCN(C)CC1` [Compound 10, N-[(3R,4R)-1-(8-cyanoquinoxalin-5-yl)-4-methylpyrrolidin-3-yl]-2-(4-fluoro-1-methylpiperidin-4-yl)acetamide], the negative-log IC50 (pIC50) at TLR7 and on TLR8 was more than 6.00 in each case.
In the case of `CC(C)[C@H](O)C(=O)N[C@H]1CN(c2ccc(C#N)c3nccnc23)C[C@H]1C` [Compound 15, (2S)—N-[(3R,4R)-1-(8-cyanoquinoxalin-5-yl)-4-methylpyrrolidin-3-yl]-2-hydroxy-3-methylbutanamide], the pIC50 on TLR7 and at TLR8 was 5.00 to 6.00 throughout.
For the compound `CC(C)[C@@H](O)C(=O)N[C@H]1CN(c2ccc(C#N)c3nccnc23)C[C@H]1C` [Compound 16, (2R)—N-[(3R,4R)-1-(8-cyanoquinoxalin-5-yl)-4-methylpyrrolidin-3-yl]-2-hydroxy-3-methylbutanamide], the negative logarithm of the IC50 (pIC50) on TLR7 and on TLR8 was 5.00 to 6.00 throughout.
Consider `C[C@@H]1CN(c2ccc(C(F)(F)F)c3ncccc23)C[C@@H]1N` [Compound 17, (3R,4R)-4-methyl-1-[8-(trifluoromethyl)quinolin-5-yl]pyrrolidin-3-amine], for which the pIC50 at TLR7 is 5.00 to 6.00; at TLR8, less than 5.00.
In the same order, the values of `C[C@@H]1CN(c2ccc(C(F)(F)F)c3ncccc23)C[C@@H]1NC(=O)CC1CCN(C)CC1` [Compound 18, N-[(3R,4R)-4-methyl-1-[8-(trifluoromethyl)quinolin-5-yl]pyrrolidin-3-yl]-2-(1-methylpiperidin-4-yl)acetamide] are more than 6.00 and more than 6.00.
The like results for `C[C@@H]1CN(c2ccc(C(F)(F)F)c3ncccc23)C[C@@H]1NC(=O)CN1CCOCC1` [Compound 23, N-[(3R,4R)-4-methyl-1-[8-(trifluoromethyl)quinolin-5-yl]pyrrolidin-3-yl]-2-(morpholin-4-yl)acetamide] were, in that order, 5.00 to 6.00 and less than 5.00.
In the same order, the values of `C[C@@H]1CN(c2ccc(C(F)(F)F)c3ncccc23)C[C@@H]1NC(=O)CC1(C)CCN(C)CC1` [Compound 24, 2-(1,4-dimethylpiperidin-4-yl)-N-[(3R,4R)-4-methyl-1-[8-(trifluoromethyl)quinolin-5-yl]pyrrolidin-3-yl]acetamide] are more than 6.00 and more than 6.00.
Consider `C[C@@H]1CN(c2ccc(C(F)(F)F)c3ncccc23)C[C@@H]1NC(=O)CC1(F)CCNCC1` [Compound 25, 2-(4-fluoropiperidin-4-yl)-N-[(3R,4R)-4-methyl-1-[8-(trifluoromethyl)quinolin-5-yl]pyrrolidin-3-yl]acetamide], for which the pIC50 on TLR7 and on TLR8 was more than 6.00 in each case.
Take `C[C@@H]1CN(c2ccc(C(F)(F)F)c3ncccc23)C[C@@H]1NC(=O)CC1(F)CCN(C)CC1` [Compound 26, 2-(4-fluoro-1-methylpiperidin-4-yl)-N-[(3R,4R)-4-methyl-1-[8-(trifluoromethyl)quinolin-5-yl]pyrrolidin-3-yl]acetamide]: the pIC50 on TLR7 and at TLR8 was more than 6.00 in each case.
Consider `CC(C)[C@H](O)C(=O)N[C@H]1CN(c2ccc(C(F)(F)F)c3ncccc23)C[C@H]1C` [Compound 31, (2S)-2-hydroxy-3-methyl-N-[(3R,4R)-4-methyl-1-[8-(trifluoromethyl)quinolin-5-yl]pyrrolidin-3-yl]butanamide], for which the negative-log IC50 (pIC50) at TLR7 is 5.00 to 6.00; at TLR8, less than 5.00.
In the same order, the values of `CC(C)[C@@H](O)C(=O)N[C@H]1CN(c2ccc(C(F)(F)F)c3ncccc23)C[C@H]1C` [Compound 32, (2R)-2-hydroxy-3-methyl-N-[(3R,4R)-4-methyl-1-[8-(trifluoromethyl)quinolin-5-yl]pyrrolidin-3-yl]butanamide] are less than 5.00 and less than 5.00.
For the compound `Cc1ccc(N2C[C@@H](C)[C@@H](N)C2)c2cccnc12` [Compound 33, (3R,4R)-4-methyl-1-(8-methylquinolin-5-yl)pyrrolidin-3-amine], the pIC50 on TLR7 and at TLR8 was less than 5.00 each time.

Source of the values: patent US10793553B2, “TLR7/8 antagonists and uses thereof” (Merck Patent GmbH, priority 2017, dated 2020).
